Patent US6706663B2, “Herbicidal 3-heterocyclic substituted benzisothiazole and benzisoxazole compounds” (Wyeth, priority 2000, dated 2004)

Columns and labels:
[1] = system: ABUTH (Abutilon theophrasti); assay: Postemergence herbicidal evaluation; type: in vivo, Medic.; conditions: postemergence
Method in brief: (§1)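 Seedlings grown about two weeks in flats, sprayed, then kept under standard greenhouse care. Rated visually 4–5 weeks after treatment on a 0–9 scale (stand, vigour, malformation, size, chlorosis, overall appearance) relative to untreated control; repeat tests averaged.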

[2] = system: AMBEL (Ambrosia artemisifolia); assay: Postemergence herbicidal evaluation; type: in vivo, L.; conditions: postemergence
Method in brief: as §1

[3] = system: CASOB (Cassia obtusifolia); assay: Postemergence herbicidal evaluation; type: in vivo, L.; conditions: postemergence
Method in brief: as §1

[4] = system: CHEAL (Chenopodium album); assay: Postemergence herbicidal evaluation; type: in vivo, L.; conditions: postemergence
Method in brief: as §1

GALAP (Galium aparine) [5] = assay: Postemergence herbicidal evaluation; type: in vivo; conditions: postemergence
Method in brief: as §1

[6] = system: IPOHE (Ipomoea hederacea); assay: Postemergence herbicidal evaluation; type: in vivo, (L.) Jacq.; conditions: postemergence
Method in brief: as §1

[7] = system: ECHCG (Echinochloa crus-galli); assay: Postemergence herbicidal evaluation; type: in vivo, (L.) Beau; conditions: postemergence
Method in brief: as §1

[8] = system: GLXMAW (Soybean, Williams); assay: Postemergence herbicidal evaluation; type: in vivo, Glycine max, (L.) Merr. cv Williams; conditions: postemergence
Method in brief: as §1

ZEAMX (Corn, Field) [9] = assay: Postemergence herbicidal evaluation; type: in vivo, Zea mays, L.; conditions: postemergence
Method in brief: as §1

[10] = system: AMBEL (Ambrosia artemisifolia); assay: Preemergence herbicidal evaluation; type: in vivo, L.; conditions: rated 4-5 weeks after treatment
Method in brief: (§2)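 Seeds planted in potting soil cups and sprayed preemergence with aqueous acetone compound solution. Greenhouse-grown; rated 4–5 weeks after treatment on a 0-9 visual scale (stand, vigor, malformation, size, chlorosis, appearance) versus control.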

[11] = system: CASOB (Cassia obtusifolia); assay: Preemergence herbicidal evaluation; type: in vivo, L.; conditions: rated 4-5 weeks after treatment
Method in brief: as §2

[12] = system: CHEAL (Chenopodium album); assay: Preemergence herbicidal evaluation; type: in vivo, L.; conditions: rated 4-5 weeks after treatment
Method in brief: as §2

GALAP (Galium aparine) [13] = assay: Preemergence herbicidal evaluation; type: in vivo; conditions: rated 4-5 weeks after treatment
Method in brief: as §2

[14] = system: IPOHE (Ipomoea hederacea); assay: Preemergence herbicidal evaluation; type: in vivo, (L.) Jacq.; conditions: rated 4-5 weeks after treatment
[15] = system: GLXMAW (Soybean, Williams); assay: Preemergence herbicidal evaluation; type: in vivo, Glycine max, (L.) Merr. cv Williams; conditions: rated 4-5 weeks after treatment
ORYSAT (Rice, Tebonnet) = assay: Preemergence herbicidal evaluation; type: in vivo, Oryza sativa, (L.) Tebonnet; conditions: rated 4-5 weeks after treatment
[16] = system: TRZAWR (Wheat, Winter, cv Riband); assay: Preemergence herbicidal evaluation; type: in vivo, Triticum aestivum; conditions: rated 4-5 weeks after treatment
Method in brief: as §2

ZEAMX (Corn, Field) [17] = assay: Preemergence herbicidal evaluation; type: in vivo, Zea mays, L.; conditions: rated 4-5 weeks after treatment
[18] = system: ECHORC (Echinochloa oryzoides); assay: Flooded paddy, preemergence weed control; type: in vivo, Echinochloa oryzoides (Ard.) Fritsch.; conditions: rated 3-4 weeks after treatment, 0-9 rating scale
Method in brief: (§3)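 Flooded silt loam pots, seeds in upper 0.5 cm, water held 1.5–3 cm deep; greenhouse; visual 0-9 score vs control.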

CYPIR (Cyperus iria) = assay: Flooded paddy, preemergence weed control; type: in vivo; conditions: rated 3-4 weeks after treatment, 0-9 rating scale
Method in brief: as §3

[19] = system: SAGPY (Sagittaria pygmaea); assay: Flooded paddy, preemergence weed control; type: in vivo, L.; conditions: rated 3-4 weeks after treatment, 0-9 rating scale
Method in brief: as §3

[20] = preemergence, rate 0.0620 kg/ha
[21] = preemergence, rate 0.1250 kg/ha
[22] = preemergence, rate 0.2500 kg/ha

SMILES: Cn1c(C(F)(F)F)cc(=O)n(-c2ccc3snc(C4OCC(CCl)O4)c3c2)c1=O (stereo not shown) [Compound 72, 3-[3-[4-(chloromethyl)-1,3-dioxolan-2-yl]-1,2-benzisothiazol-5-yl]-1-methyl-6-(trifluoromethyl)uracil]
- ABUTH herbicidal rating ([1]; rate 0.0320 kg/ha): 9.0
- ABUTH herbicidal rating ([1]; rate 0.0620 kg/ha): 9.0
- AMBEL herbicidal rating ([2]; rate 0.0320 kg/ha): 9.0
- AMBEL herbicidal rating ([2]; rate 0.0620 kg/ha): 9.0
- CASOB herbicidal rating ([3]; rate 0.0320 kg/ha): 5.0
- CASOB herbicidal rating ([3]; rate 0.0620 kg/ha): 5.0
- CHEAL herbicidal rating ([4]; rate 0.0320 kg/ha): 9.0
- CHEAL herbicidal rating ([4]; rate 0.0620 kg/ha): 9.0
- GALAP herbicidal rating (GALAP (Galium aparine) [5]; rate 0.0320 kg/ha): 9.0
- GALAP herbicidal rating (GALAP (Galium aparine) [5]; rate 0.0620 kg/ha): 9.0
- IPOHE herbicidal rating ([6]; rate 0.0320 kg/ha): 9.0
- IPOHE herbicidal rating ([6]; rate 0.0620 kg/ha): 9.0
- ECHCG herbicidal rating ([7]; rate 0.0320 kg/ha): 3.0
- ECHCG herbicidal rating ([7]; rate 0.0620 kg/ha): 3.0
- GLXMAW herbicidal rating ([8]; rate 0.0320 kg/ha): 6.5
- GLXMAW herbicidal rating ([8]; rate 0.0620 kg/ha): 8.5
- ZEAMX herbicidal rating (ZEAMX (Corn, Field) [9]; rate 0.0320 kg/ha): 5.0
- ZEAMX herbicidal rating (ZEAMX (Corn, Field) [9]; rate 0.0620 kg/ha): 5.0
- Preemergence herbicidal rating AMBEL ([10]; Rate 0.0620 kg/ha): 9.0
- Preemergence herbicidal rating AMBEL ([10]; Rate 0.1250 kg/ha): 9.0
- Preemergence herbicidal rating AMBEL ([10]; Rate 0.2500 kg/ha): 9.0
- Preemergence herbicidal rating CASOB ([11]; Rate 0.0620 kg/ha): 3.0
- Preemergence herbicidal rating CASOB ([11]; Rate 0.1250 kg/ha): 6.5
- Preemergence herbicidal rating CASOB ([11]; Rate 0.2500 kg/ha): 8.0
- Preemergence herbicidal rating CHEAL ([12]; Rate 0.0620 kg/ha): 9.0
- Preemergence herbicidal rating CHEAL ([12]; Rate 0.1250 kg/ha): 9.0
- Preemergence herbicidal rating CHEAL ([12]; Rate 0.2500 kg/ha): 9.0
- Preemergence herbicidal rating GALAP (GALAP (Galium aparine) [13]; Rate 0.0620 kg/ha): 8.0
- Preemergence herbicidal rating GALAP (GALAP (Galium aparine) [13]; Rate 0.1250 kg/ha): 9.0
- Preemergence herbicidal rating GALAP (GALAP (Galium aparine) [13]; Rate 0.2500 kg/ha): 9.0
- Preemergence herbicidal rating IPOHE ([14]; Rate 0.0620 kg/ha): 3.5
- Preemergence herbicidal rating IPOHE ([14]; Rate 0.1250 kg/ha): 6.5
- Preemergence herbicidal rating IPOHE ([14]; Rate 0.2500 kg/ha): 8.0
- Preemergence herbicidal rating GLXMAW ([15]; Rate 0.0620 kg/ha): 6.5
- Preemergence herbicidal rating GLXMAW ([15]; Rate 0.1250 kg/ha): 9.0
- Preemergence herbicidal rating GLXMAW ([15]; Rate 0.2500 kg/ha): 9.0
- Preemergence herbicidal rating ORYSAT (ORYSAT (Rice, Tebonnet); Rate 0.0620 kg/ha): 8.5
- Preemergence herbicidal rating ORYSAT (ORYSAT (Rice, Tebonnet); Rate 0.1250 kg/ha): 8.5
- Preemergence herbicidal rating ORYSAT (ORYSAT (Rice, Tebonnet); Rate 0.2500 kg/ha): 9.0
- Preemergence herbicidal rating TRZAWR ([16]; Rate 0.0620 kg/ha): 7.0
- Preemergence herbicidal rating TRZAWR ([16]; Rate 0.1250 kg/ha): 9.0
- Preemergence herbicidal rating TRZAWR ([16]; Rate 0.2500 kg/ha): 9.0
- Preemergence herbicidal rating ZEAMX (ZEAMX (Corn, Field) [17]; Rate 0.0620 kg/ha): 8.0
- Preemergence herbicidal rating ZEAMX (ZEAMX (Corn, Field) [17]; Rate 0.1250 kg/ha): 8.5
- Preemergence herbicidal rating ZEAMX (ZEAMX (Corn, Field) [17]; Rate 0.2500 kg/ha): 9.0
- herbicidal rating, ECHORC ([18]; rate 0.0080 kg/ha): 5.0
- herbicidal rating, ECHORC ([18]; rate 0.0320 kg/ha): 9.0
- herbicidal rating, ECHORC ([18]; rate 0.1250 kg/ha): 9.0
- herbicidal rating, CYPIR (CYPIR (Cyperus iria); rate 0.0080 kg/ha): 0.0
- herbicidal rating, CYPIR (CYPIR (Cyperus iria); rate 0.0320 kg/ha): 3.0
- herbicidal rating, CYPIR (CYPIR (Cyperus iria); rate 0.1250 kg/ha): 9.0
- herbicidal rating, SAGPY ([19]; rate 0.0080 kg/ha): 0.0
- herbicidal rating, SAGPY ([19]; rate 0.0320 kg/ha): 0.0
- herbicidal rating, SAGPY ([19]; rate 0.1250 kg/ha): 8.0

SMILES: Cn1c(C(F)(F)F)cc(=O)n(-c2ccc3snc(-c4ccoc4)c3c2)c1=O [Compound 83, 3-[3-(3-furyl)-1,2-benzisothiazol-5-yl]-1-methyl-6-(trifluoromethyl)uracil]
- ABUTH herbicidal rating ([1]; rate 0.0320 kg/ha): 6.0
- ABUTH herbicidal rating ([1]; rate 0.0620 kg/ha): 9.0
- AMBEL herbicidal rating ([2]; rate 0.0320 kg/ha): 2.0
- AMBEL herbicidal rating ([2]; rate 0.0620 kg/ha): 6.0
- CASOB herbicidal rating ([3]; rate 0.0320 kg/ha): 4.0
- CASOB herbicidal rating ([3]; rate 0.0620 kg/ha): 6.0
- CHEAL herbicidal rating ([4]; rate 0.0320 kg/ha): 3.0
- CHEAL herbicidal rating ([4]; rate 0.0620 kg/ha): 6.0
- GALAP herbicidal rating (GALAP (Galium aparine) [5]; rate 0.0320 kg/ha): 2.0
- GALAP herbicidal rating (GALAP (Galium aparine) [5]; rate 0.0620 kg/ha): 3.0
- IPOHE herbicidal rating ([6]; rate 0.0320 kg/ha): 2.0
- IPOHE herbicidal rating ([6]; rate 0.0620 kg/ha): 4.0
- ECHCG herbicidal rating ([7]; rate 0.0320 kg/ha): 2.0
- ECHCG herbicidal rating ([7]; rate 0.0620 kg/ha): 3.0
- GLXMAW herbicidal rating ([8]; rate 0.0320 kg/ha): 4.0
- GLXMAW herbicidal rating ([8]; rate 0.0620 kg/ha): 6.0
- ZEAMX herbicidal rating (ZEAMX (Corn, Field) [9]; rate 0.0320 kg/ha): 2.5
- ZEAMX herbicidal rating (ZEAMX (Corn, Field) [9]; rate 0.0620 kg/ha): 3.0
- Preemergence herbicidal rating AMBEL [10, 20]: 6.0
- Preemergence herbicidal rating AMBEL [10, 21]: 7.5
- Preemergence herbicidal rating AMBEL [10, 22]: 9.0
- Preemergence herbicidal rating CASOB [11, 20]: 0.0
- Preemergence herbicidal rating CASOB [11, 21]: 0.0
- Preemergence herbicidal rating CASOB [11, 22]: 1.0
- Preemergence herbicidal rating CHEAL [12, 20]: 4.0
- Preemergence herbicidal rating CHEAL [12, 21]: 9.0
- Preemergence herbicidal rating CHEAL [12, 22]: 9.0
- Preemergence herbicidal rating GALAP (GALAP (Galium aparine) [13]; [21]): 4.0
- Preemergence herbicidal rating IPOHE [14, 20]: 3.0
- Preemergence herbicidal rating IPOHE [14, 21]: 5.0
- Preemergence herbicidal rating IPOHE [14, 22]: 5.5
- Preemergence herbicidal rating GLXMAW [15, 20]: 0.0
- Preemergence herbicidal rating GLXMAW [15, 21]: 2.5
- Preemergence herbicidal rating GLXMAW [15, 22]: 6.0
- Preemergence herbicidal rating ORYSAT (ORYSAT (Rice, Tebonnet); [20]): 0.0
- Preemergence herbicidal rating ORYSAT (ORYSAT (Rice, Tebonnet); [21]): 3.5
- Preemergence herbicidal rating ORYSAT (ORYSAT (Rice, Tebonnet); [22]): 5.5
- Preemergence herbicidal rating TRZAWR [16, 20]: 3.0
- Preemergence herbicidal rating TRZAWR [16, 21]: 4.0
- Preemergence herbicidal rating TRZAWR [16, 22]: 5.0
- Preemergence herbicidal rating ZEAMX (ZEAMX (Corn, Field) [17]; [20]): 3.0
- Preemergence herbicidal rating ZEAMX (ZEAMX (Corn, Field) [17]; [21]): 5.0
- Preemergence herbicidal rating ZEAMX (ZEAMX (Corn, Field) [17]; [22]): 6.0
- herbicidal rating, ECHORC ([18]; rate 0.0080 kg/ha): 0.0
- herbicidal rating, ECHORC ([18]; rate 0.0320 kg/ha): 6.0
- herbicidal rating, ECHORC ([18]; rate 0.1250 kg/ha): 7.0
- herbicidal rating, CYPIR (CYPIR (Cyperus iria); rate 0.0080 kg/ha): 0.0
- herbicidal rating, CYPIR (CYPIR (Cyperus iria); rate 0.0320 kg/ha): 0.0
- herbicidal rating, CYPIR (CYPIR (Cyperus iria); rate 0.1250 kg/ha): 3.0
- herbicidal rating, SAGPY ([19]; rate 0.0080 kg/ha): 0.0
- herbicidal rating, SAGPY ([19]; rate 0.0320 kg/ha): 0.0
- herbicidal rating, SAGPY ([19]; rate 0.1250 kg/ha): 0.0
